The target in test [1] is T1, STAT6 (Homo sapiens, UniProt P42226).
T1 construct: stably transfected HaCaT keratinocyte cell line, which expresses NanoLuc luciferase reporter gene under the transcriptional control of the STAT6 responsive promoter; endogenous in cells; host or cells: HaCaT keratinocyte reporter cell line (stably transfected with a NanoLuc reporter)
T1 sequence (P42226 1-847): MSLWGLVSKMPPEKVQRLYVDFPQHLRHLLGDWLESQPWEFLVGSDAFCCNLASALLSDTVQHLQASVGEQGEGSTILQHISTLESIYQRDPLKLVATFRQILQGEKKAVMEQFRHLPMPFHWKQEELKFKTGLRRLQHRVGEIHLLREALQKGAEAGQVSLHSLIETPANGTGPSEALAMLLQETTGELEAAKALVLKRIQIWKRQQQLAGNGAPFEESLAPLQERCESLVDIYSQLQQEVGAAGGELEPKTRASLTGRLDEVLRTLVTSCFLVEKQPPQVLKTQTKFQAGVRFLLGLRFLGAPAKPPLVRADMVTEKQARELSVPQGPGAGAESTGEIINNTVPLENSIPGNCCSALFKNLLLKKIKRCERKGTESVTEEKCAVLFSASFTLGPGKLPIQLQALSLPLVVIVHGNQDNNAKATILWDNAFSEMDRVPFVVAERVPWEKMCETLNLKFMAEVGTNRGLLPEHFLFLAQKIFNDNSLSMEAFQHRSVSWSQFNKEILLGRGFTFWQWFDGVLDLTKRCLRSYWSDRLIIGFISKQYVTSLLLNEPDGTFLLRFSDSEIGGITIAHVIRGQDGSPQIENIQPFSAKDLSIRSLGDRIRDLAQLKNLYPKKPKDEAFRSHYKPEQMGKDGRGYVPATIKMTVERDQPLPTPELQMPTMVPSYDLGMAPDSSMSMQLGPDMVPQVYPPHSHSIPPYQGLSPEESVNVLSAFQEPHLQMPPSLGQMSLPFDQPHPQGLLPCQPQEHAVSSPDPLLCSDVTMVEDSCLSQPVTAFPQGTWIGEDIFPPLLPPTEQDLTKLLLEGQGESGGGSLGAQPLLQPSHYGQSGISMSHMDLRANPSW
The test can be described thus: STAT6 Reporter Luciferase Assay (IL-13 stimulated HaCaT keratinocyte NanoLuc reporter cells). The following applies: IL-13 stimulated HaCaT STAT6 NanoLuc reporter cells; read-out: Reporter EC50. It is filed as cell-based. The method, boiled down: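 Stably transfected HaCaT cells carrying NanoLuc under the STAT6-responsive IL-13Ra2 promoter were pre-treated with compound (11-point, 4-fold series, duplicate) for 2 h at 37 °C, then stimulated with 0.12 nM IL-13 for 4 h. Nano-Glo luminescence was read after 15 min.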

Test [2] relates to CCL17 secretion in peripheral human whole blood. The test can be described thus: Human Whole Blood (HWB) CCL17 TR-FRET Assay (IL-13 stimulated CCL17 secretion). The conditions noted are these: human whole blood, IL-13 stimulated. It is filed as cell-based. The method, boiled down:
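Heparin-anticoagulated human blood; cpd 11-pt 3-fold dilution, duplicate, 2 h 37 °C preinc; IL-13 10 ng/mL final, 48 h 37 °C; spin, serum CCL17 by TR-FRET ELISA, 16 h RT, 665/615 ratio; IC50.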

As to `C[C@H]1CN(c2ccc(C(=O)N(C)C)cn2)Cc2c(C(=O)NCc3ccc(NC(=O)N(C)C)cc3)nn(C3CCOCC3)c21` (single isomer, unassigned) [Example 258], the EC50 in test [1] worked out at 2 nM. This compound also had an IC50 in test [2] (Homo sapiens, 48 h) of 8 nM.

As to `CCC1Cc2c(c(C(=O)NCc3ccc(NC(=O)N(C)C)cc3)nn2C(C)C)CN1c1ccc(C(=O)N(C)C)cn1` (single isomer, unassigned) [Example 267, rel-(R or S)-5-(5-(dimethylcarbamoyl)pyridin-2-yl)-N-(4-(3,3-dimethylureido)benzyl)-6-ethyl-1-isopropyl-4,5,6,7-tetrahydro-1H-pyrazolo[4,3-c]pyridine-3-carboxamide], in test [1], the concentration for a half-maximal effect (EC50) was found to be 50 nM. Further, the midpoint of inhibition in test [2] (48 hours), the IC50, lay at 984 nM.

For the compound `CCC1Cc2c(c(C(=O)NCc3ccc(NC(=O)N(C)C)cc3)nn2C(C)C)CN1c1ccc(C(=O)N(C)C)cn1` (single isomer, unassigned) [Example 268, rel-(R or S)-5-(5-(dimethylcarbamoyl)pyridin-2-yl)-N-(4-(3,3-dimethylureido)benzyl)-6-ethyl-1-isopropyl-4,5,6,7-tetrahydro-1H-pyrazolo[4,3-c]pyridine-3-carboxamide], the EC50 in test [1] came to 3 nM. Moreover, the IC50 in test [2] (48 hours) was 21 nM.

Regarding `CCC1Cc2c(c(C(=O)NCc3ccc(NC(=O)N(C)C)cc3)nn2C)CN1c1ccc(C(=O)N(C)C)cn1` (single isomer, unassigned) [Example 269, rel-(R or S)-5-(5-(dimethylcarbamoyl)pyridin-2-yl)-N-(4-(3,3-dimethylureido)benzyl)-6-ethyl-1-methyl-4,5,6,7-tetrahydro-1H-pyrazolo[4,3-c]pyridine-3-carboxamide], the EC50 in test [1] turned out to be 87 nM. In test [2] (48 hours), this compound registered an IC50 of 834 nM.

Regarding `CCC1Cc2c(c(C(=O)NCc3ccc(NC(=O)N(C)C)cc3)nn2C)CN1c1ccc(C(=O)N(C)C)cn1` (single isomer, unassigned) [Example 270, rel-(R or S)-5-(5-(dimethylcarbamoyl)pyridin-2-yl)-N-(4-(3,3-dimethylureido)benzyl)-6-ethyl-1-methyl-4,5,6,7-tetrahydro-1H-pyrazolo[4,3-c]pyridine-3-carboxamide], in test [1], the EC50 came out at 7 nM. The same compound showed an IC50 in test [2] (48 hours) of 33 nM.

In the case of `CC(C)C1CN(c2ccc(C(=O)N(C)C)cn2)Cc2c(C(=O)NCc3ccc(NC(=O)N(C)C)cc3)nn(C)c21` (single isomer, unassigned) [Example 271, rel-(R or S)-5-(5-(dimethylcarbamoyl)pyridin-2-yl)-N-(4-(3,3-dimethylureido)benzyl)-7-isopropyl-1-methyl-4,5,6,7-tetrahydro-1H-pyrazolo[4,3-c]pyridine-3-carboxamide], the EC50 in test [1] was 11 nM. For the same compound, in test [2] (48 hours), the IC50 was determined as 180 nM.

Regarding `CC(C)C1CN(c2ccc(C(=O)N(C)C)cn2)Cc2c(C(=O)NCc3ccc(NC(=O)N(C)C)cc3)nn(C)c21` (single isomer, unassigned) [Example 272, rel-(R or S)-5-(5-(dimethylcarbamoyl)pyridin-2-yl)-N-(4-(3,3-dimethylureido)benzyl)-7-isopropyl-1-methyl-4,5,6,7-tetrahydro-1H-pyrazolo[4,3-c]pyridine-3-carboxamide], the EC50 in test [1] stood at 4 nM. In test [2] (48 hours), this compound showed an IC50 of 30 nM.

Turning to `C[C@H]1CN(c2ncc(C(=O)N(C)C)cn2)Cc2c(C(=O)NCc3ccc(NC(=O)N(C)C)cc3)nn(C)c21` (single isomer, unassigned) [Example 273], the EC50 in test [1] stood at 3 nM. In test [2] (Homo sapiens, 48 h), the IC50 came to 12 nM.

`CN(C)C(=O)Nc1ccc(CNC(=O)c2nn(C)c3c2[C@H]2CCC[C@@H](C3)N2c2ccc(C(=O)N(C)C)cn2)cc1` (single isomer, unassigned) [Example 274]: the EC50 in test [1] is 695 nM. In test [2] (Homo sapiens, 48 h), this compound had an IC50 of 4770 nM.

For the compound `CN(C)C(=O)Nc1ccc(CNC(=O)c2nn(C)c3c2[C@H]2CCC[C@@H](C3)N2c2ccc(C(=O)N(C)C)cn2)cc1` (single isomer, unassigned) [Example 275], the 50% effective concentration (EC50) in test [1] worked out at 7 nM. In test [2] (48 hours), 30 nM corresponded to half-maximal inhibition (IC50).

In the case of `CC(C)n1nc(C(=O)NCc2ccc(NC(=O)N(C)C)cc2)c2c1CC(C(F)(F)F)N(c1ccc(C(=O)N(C)C)cn1)C2` (single isomer, unassigned) [Example 276, rel-(R or S)-5-(5-(dimethylcarbamoyl)pyridin-2-yl)-N-(4-(3,3-dimethylureido)benzyl)-1-isopropyl-6-(trifluoromethyl)-4,5,6,7-tetrahydro-1H-pyrazolo[4,3-c]pyridine-3-carboxamide], the EC50 in test [1] is 2 nM. The same compound displayed an IC50 in test [2] (48 hours) of 28 nM.

For `CC(C)n1nc(C(=O)NCc2ccc(NC(=O)N(C)C)cc2)c2c1CC(C(F)(F)F)N(c1ccc(C(=O)N(C)C)cn1)C2` (single isomer, unassigned) [Example 277, rel-(R or S)-5-(5-(dimethylcarbamoyl)pyridin-2-yl)-N-(4-(3,3-dimethylureido)benzyl)-1-isopropyl-6-(trifluoromethyl)-4,5,6,7-tetrahydro-1H-pyrazolo[4,3-c]pyridine-3-carboxamide], the EC50 in test [1] turned out to be 10 nM. In addition, it took 109 nM to reach half-maximal inhibition in test [2] (48 hours) (IC50).

As for `CC1CN(c2ccc(C(=O)N(C)C)cn2)Cc2c1nn1c2C(=O)N(Cc2ccc(NC(=O)N(C)C)cc2)CC1` (single isomer, unassigned) [Example 280, rel-(R or S)-6-(9-(4-(3,3-dimethylureido)benzyl)-4-methyl-10-oxo-3,4,7,8,9,10-hexahydropyrido[4′,3′:3,4]pyrazolo[1,5-alpyrazin-2(1H)-yl)-N,N-dimethylnicotinamide], the EC50 in test [1] worked out at 10 nM. The compound further showed an IC50 in test [2] (Homo sapiens, 48 h) of 134 nM.

Regarding `CC1CN(c2ccc(C(=O)N(C)C)cn2)Cc2c1nn1c2C(=O)N(Cc2ccc(NC(=O)N(C)C)cc2)CC1` (single isomer, unassigned) [Example 281, rel-(R or S)-6-(9-(4-(3,3-dimethylureido)benzyl)-4-methyl-10-oxo-3,4,7,8,9,10-hexahydropyrido[4′,3′:3,4]pyrazolo[1,5-alpyrazin-2(1H)-yl)-N,N-dimethylnicotinamide], the EC50 in test [1] came to 17 nM. In test [2] (48 hours), this compound yielded an IC50 of 212 nM.

`C[C@H]1CN(c2ccc(C(=O)N(C)C)cn2)Cc2c(C(=O)NCc3ccc(NC(=O)N(C)C)cc3)nn(C3(C)CC3)c21` (single isomer, unassigned) [Example 285]: in test [1], the EC50 was found to be 1 nM. In addition, the IC50 in test [2] (Homo sapiens, 48 h) was 7 nM.

On to `C[C@H]1CN(c2ccc(C(=O)N(C)C)cn2)Cc2c(C(=O)NCc3ccc(NC(=O)N(C)C)cc3)nn(CC3CC3)c21` (single isomer, unassigned) [Example 287], for which the EC50 in test [1] is 1 nM. Besides, in test [2] (Homo sapiens, 48 h), it took 13 nM to reach half-maximal inhibition (IC50).

For `CCn1nc(C(=O)NCc2ccc(NC(=O)N(C)C)cc2)c2c1C(C(F)(F)F)CN(c1ccc(C(=O)N(C)C)cn1)C2` (single isomer, unassigned) [Example 303, rel-(R or S)-5-(5-(dimethylcarbamoyl)pyridin-2-yl)-N-(4-(3,3-dimethylureido)benzyl)-1-ethyl-7-(trifluoromethyl)-4,5,6,7-tetrahydro-1H-pyrazolo[4,3-c]pyridine-3-carboxamide], the EC50 in test [1] was determined as 22 nM. The same compound had an IC50 in test [2] (48 hours) of 334 nM.

In the case of `CCn1nc(C(=O)NCc2ccc(NC(=O)N(C)C)cc2)c2c1C(C(F)(F)F)CN(c1ccc(C(=O)N(C)C)cn1)C2` (single isomer, unassigned) [Example 304, rel-(R or S)-5-(5-(dimethylcarbamoyl)pyridin-2-yl)-N-(4-(3,3-dimethylureido)benzyl)-1-ethyl-7-(trifluoromethyl)-4,5,6,7-tetrahydro-1H-pyrazolo[4,3-c]pyridine-3-carboxamide], the EC50 in test [1] came to 0.3 nM. In addition, in test [2] (48 hours), the IC50 stood at 4 nM.

As to `C[C@H]1CN(c2ccc(C(=O)N(C)C)cn2)Cc2c(C(=O)NCc3ccc(NC(=O)N(C)C)cc3)nn(CC(F)(F)F)c21` (single isomer, unassigned) [Example 307], the EC50 in test [1] was determined as 0.5 nM. In test [2] (Homo sapiens, 48 h), this compound showed an IC50 of 7 nM.

The values are drawn from patent US20250320213A1, “Nitrogen-Containing Heterocyclic Compounds” (Pfizer Inc., priority 2024, published 2025).
